# Data taken from patent publication US11045457B2, “Piperidinyl-3-(aryloxy)propanamides and propanoates” (priority 2018, dated 2021).
# Molecular target: SSTR4 (Homo sapiens (Human), UniProt P31391)
# Assay: Inhibition of forskolin stimulated cAMP in CHO-K1 cells overexpressing SSTR4
# Format: cell-based
# Conditions: not given
# Procedure: Inhibition of Forskolin Stimulated cAMP in Cells Overexpressing SSTR4
# This cell-based assay measures the ability of compounds to inhibit forskolin stimulated cAMP in CHO-K1 cells overexpressing SSTR4. CHO-K1 cells overexpressing SSTR4 (CHO-SSTR4) are purchased from DiscoveRx (product code 95-0059C2). The CHO-SSTR4 cells are maintained in F12K media with 10% Fetal Bovine Serum (Hyclone), 1% Pen/Strep (Life Technologies), and 800 μg/mL G418 (Life Technologies). […] The next day, the culture media is removed from the cells and the cells are washed (added then removed) with Kreb's Ringer Buffer (ZenBio, KRB-1000 mL). […] The cells are incubated in […] for 30 minutes at room temperature. Cellular cAMP levels are detected with a HTRF LANCE Ultra cAMP kit (Perkin Elmer, catalog number TRF0264).
# The assay is performed in accordance with the manufacturer's instructions. Five μL of diluted Eu-W8044 labeled streptavidin (dilution: 1:50 in cAMP Detection Buffer) is added to each well. Then 5 μL of diluted biotin cAMP (dilution: 1:150 in cAMP Detection Buffer) is added to each well. The plates are covered and allowed to incubate for 60 minutes at room temperature on a shaker. […] The pEC50 values are generated using Activity Base for Screening Data Management.
# Chain of SSTR4 (P31391 whole entry): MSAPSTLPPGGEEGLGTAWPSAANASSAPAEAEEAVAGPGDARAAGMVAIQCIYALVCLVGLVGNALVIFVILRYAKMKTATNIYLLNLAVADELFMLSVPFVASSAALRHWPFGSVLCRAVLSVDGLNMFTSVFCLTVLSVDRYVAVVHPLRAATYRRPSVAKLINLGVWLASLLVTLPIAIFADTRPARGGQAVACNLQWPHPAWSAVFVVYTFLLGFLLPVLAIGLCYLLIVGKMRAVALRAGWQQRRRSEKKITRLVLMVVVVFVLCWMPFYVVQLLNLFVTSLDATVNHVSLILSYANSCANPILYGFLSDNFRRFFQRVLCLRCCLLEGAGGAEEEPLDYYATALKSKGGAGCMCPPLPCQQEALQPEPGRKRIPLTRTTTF
row,Structure (SMILES),SSTR4 Activity pEC50
1,"CCc1cccnc1OCC(C)(C)C(=O)N[C@@H]1CCN(C)C1 [Example 86, (R)-3-((3-ethylpyridin-2-yl)oxy)-2,2-dimethyl-N-(1-methylpyrrolidin-3-yl)propanamide]",7.3
2,"CN1CCC(NC(=O)C(C)(C)COc2ncccc2OC(F)(F)F)CC12CC2 (stereo not shown) [Example 174, 2,2-dimethyl-N-(4-methyl-4-azaspiro[2.5]octan-7-yl)-3-((3-(trifluoromethoxy)pyridin-2-yl)oxy)propanamide]",7.0
3,"CCc1nccnc1OCC(C)(C)C(=O)NC1CCN(C)CC1 [Example 87, 3-((3-ethylpyrazin-2-yl)oxy)-2,2-dimethyl-N-(1-methylpiperidin-4-yl)propanamide]",6.4
4,"CN1CC[C@@H](CNC(=O)C(C)(C)COc2ncccc2C(F)(F)F)C1 [Example 37, (S)-2,2-dimethyl-N-((1-methylpyrrolidin-3-yl)methyl)-3-((3-(trifluoromethyl)pyridin-2-yl)oxy)propanamide]",6.3
5,"Cc1nc(Cl)ccc1OCC(C)(C)C(=O)NC1CCN(C)CC1 [Example 46, 3-((6-chloro-2-methylpyridin-3-yl)oxy)-2,2-dimethyl-N-(1-methylpiperidin-4-yl)propanamide]",5.4
6,"Cc1cc(C(F)(F)F)cnc1OCC(C)(C)C(=O)NC1CCN(C)CC1 [Example 91, 2,2-dimethyl-3-((3-methyl-5-(trifluoromethyl)pyridin-2-yl)oxy)-N-(1-methylpiperidin-4-yl)propanamide]",6.0
7,"CN1CCC(NC(=O)C2(COc3ccccc3Cl)CC2)CC1 [Example 81, 1-((2-chlorophenoxy)methyl)-N-(1-methylpiperidin-4-yl)cyclopropane-1-carboxamide]",6.3
8,"CN1CCC(NC(=O)C(C)(C)COc2ncccc2C(F)(F)F)CC1(C)C (stereo not shown) [Example 132, 2,2-dimethyl-3-((3-(trifluoromethyl)pyridin-2-yl)oxy)-N-(1,2,2-trimethylpiperidin-4-yl)propanamide]",7.1
9,"CCc1ccccc1OCC(C)(C)C(=O)NC1CN(C)CC1c1ccccc1 (stereo not shown) [Example 97, 3-(2-ethylphenoxy)-2,2-dimethyl-N-(1-methyl-4-phenylpyrrolidin-3-yl)propanamide]",7.9
10,"CN1C[C@@H](NC(=O)C(C)(C)COc2ncccc2C(F)(F)F)C2(CC2)C1 [Example 173, (S)-2,2-dimethyl-N-(5-methyl-5-azaspiro[2.4]heptan-7-yl)-3-((3-(trifluoromethyl)pyridin-2-yl)oxy)propanamide]",6.3
11,"Cc1cccnc1OCC(C)(C)C(=O)N[C@H]1CN(C)CC12CC2 [Example 153, (R)-2,2-dimethyl-N-(5-methyl-5-azaspiro[2.4]heptan-7-yl)-3-((3-methylpyridin-2-yl)oxy)propanamide]",8.1
12,"CN1CC[C@@H](NC(=O)C(C)(C)COc2ncncc2C2CC2)C1 [Example 4, (R)-3-((5-cyclopropylpyrimidin-4-yl)oxy)-2,2-dimethyl-N-(1-methylpyrrolidin-3-yl)propanamide]",6.5
13,"CN1CCC(NC(=O)C(C)(C)COc2ccc(C#N)cc2C(F)(F)F)CC1 [Example 73, 3-(4-cyano-2-(trifluoromethyl)phenoxy)-2,2-dimethyl-N-(1-methylpiperidin-4-yl)propanamide]",7.0
14,"CN1CCC(NC(=O)C2(COc3ncccc3C3CC3)CCC2)CC1 [Example 89, 1-(((3-cyclopropylpyridin-2-yl)oxy)methyl)-N-(1-methylpiperidin-4-yl)cyclobutane-1-carboxamide]",6.8
15,"Cc1cc(C2CC2)cnc1OCC(C)(C)C(=O)NC1CCN(C)CC1 [Example 8, 3-((5-cyclopropyl-3-methylpyridin-2-yl)oxy)-2,2-dimethyl-N-(1-methylpiperidin-4-yl)propanamide]",7.0
16,"CCC1CC(NC(=O)C(C)(C)COc2ncccc2OC(F)(F)F)CCN1C (stereo not shown) [Example 146, N-(2-ethyl-1-methylpiperidin-4-yl)-2,2-dimethyl-3-((3-(trifluoromethoxy)pyridin-2-yl)oxy)propanamide]",6.7
17,"CN1CCC(NC(=O)C(C)(C)COc2ncccc2C#N)CC1 [Example 3, 3-((3-cyanopyridin-2-yl)oxy)-2,2-dimethyl-N-(1-methylpiperidin-4-yl)propanamide]",5.8
18,"Cc1ccc(C2CC2)c(OCC(C)(C)C(=O)N[C@@H]2CCN(C)C2)n1 [Example 10, (R)-3-((3-cyclopropyl-6-methylpyridin-2-yl)oxy)-2,2-dimethyl-N-(1-methylpyrrolidin-3-yl)propanamide]",6.8
19,"CN1CCC(NC(=O)C(C)(C)COc2ncccc2C(F)(F)F)C(F)C1 (stereo not shown) [Example 113, N-(3-fluoro-1-methylpiperidin-4-yl)-2,2-dimethyl-3-((3-(trifluoromethyl)pyridin-2-yl)oxy)propanamide]",5.9
20,"Cc1cc(Cl)cnc1OCC(C)(C)C(=O)NC1CCN(C)CC1 [Example 48, 3-((5-chloro-3-methylpyridin-2-yl)oxy)-2,2-dimethyl-N-(1-methylpiperidin-4-yl)propanamide]",6.8
21,"CN1CCC(NC(=O)C(C)(C)COc2ncccc2F)CC1 [Example 39, 3-((3-fluoropyridin-2-yl)oxy)-2,2-dimethyl-N-(1-methylpiperidin-4-yl)propanamide]",6.3
22,"CN1CCC(NC(=O)C(C)(C)COc2cccc3c2CCC3)CC1 [Example 79, 3-((2,3-dihydro-1H-inden-4-yl)oxy)-2,2-dimethyl-N-(1-methylpiperidin-4-yl)propanamide]",7.0
23,"Cc1ccnc(OCC(C)(C)C(=O)NC2CCN(C)CC2)c1C [Example 88, 3-((3,4-dimethylpyridin-2-yl)oxy)-2,2-dimethyl-N-(1-methylpiperidin-4-yl)propanamide]",6.6
24,"Cc1cnc(OCC(C)(C)C(=O)N[C@@H]2CCN(C)C2)c(C2CC2)c1 [Example 7, (R)-3-((3-cyclopropyl-5-methylpyridin-2-yl)oxy)-2,2-dimethyl-N-(1-methylpyrrolidin-3-yl)propanamide]",7.2
25,"CN1CCC(NC(=O)C(C)(C)COc2ccccc2)CC1 [Example 74, 2,2-dimethyl-N-(1-methylpiperidin-4-yl)-3-phenoxypropanamide]",6.4
26,"C[C@@H]1C[C@@H](NC(=O)C(C)(C)COc2ncccc2C(F)(F)F)CCN1C [Example 177, N-((2R,4S)-1,2-dimethylpiperidin-4-yl)-2,2-dimethyl-3-((3-(trifluoromethyl)pyridin-2-yl)oxy)propanamide]",6.9

# Same assay, conditions: read-out: SSTR4 Activity pEC50 (converted)
row,Structure (SMILES),EC50 [nM]
1,"Cc1ccc([C@@H]2CN(C)C[C@H]2NC(=O)C(C)(C)COc2ncccc2C2CC2)cn1 (relative stereo) [Example 61, trans-3-((3-cyclopropylpyridin-2-yl)oxy)-2,2-dimethyl-N-(1-methyl-4-(6-methylpyridin-3-yl)pyrrolidin-3-yl)propanamide]",63.1
2,"CN1C[C@@H](NC(=O)C(C)(C)COc2ncccc2C2CC2)[C@H](c2ccc(Cl)cc2)C1 (relative stereo) [Example 94, trans-N-(4-(4-chlorophenyl)-1-methylpyrrolidin-3-yl)-3-((3-cyclopropylpyridin-2-yl)oxy)-2,2-dimethylpropanamide]",20
3,"Cc1cccnc1OCC(C)(C)C(=O)N[C@@H]1CN(C)C[C@H]1c1ccc(C(F)(F)F)nc1 (relative stereo) [Example 57, trans-2,2-dimethyl-N-(1-methyl-4-(6-(trifluoromethyl)pyridin-3-yl)pyrrolidin-3-yl)-3-((3-methylpyridin-2-yl)oxy)propanamide]",63.1
4,"Cc1ccc([C@@H]2CN(CC#N)C[C@H]2NC(=O)C(C)(C)COc2ncccc2C(F)(F)F)cn1 (relative stereo) [Example 103, trans-N-(1-(cyanomethyl)-4-(6-methylpyridin-3-yl)pyrrolidin-3-yl)-2,2-dimethyl-3-((3-(trifluoromethyl)pyridin-2-yl)oxy)propanamide]",631
5,"C[C@@H]1CN(C)CC[C@H]1NC(=O)C(F)(F)COc1ncccc1C1CC1 (relative stereo) [Example 192, trans-3-((3-cyclopropylpyridin-2-yl)oxy)-N-(1,3-dimethylpiperidin-4-yl)-2,2-difluoropropanamide]",12.6
6,"C[C@@H]1CN(C)CC[C@@H]1NC(=O)C(C)(C)COc1ncccc1OC(F)(F)F (racemic) [Example 14, cis-N-(1,3-dimethylpiperidin-4-yl)-2,2-dimethyl-3-((3-(trifluoromethoxy)pyridin-2-yl)oxy)propanamide]",79.4
7,"CN1C[C@@H](NC(=O)C(C)(C)COc2ncccc2C(F)(F)F)[C@H](c2ccc(Cl)cc2)C1 (relative stereo) [Example 56, trans-N-(4-(4-chlorophenyl)-1-methylpyrrolidin-3-yl)-2,2-dimethyl-3-((3-(trifluoromethyl)pyridin-2-yl)oxy)propanamide]",25.1
8,"CC[C@@H]1CN(C)CC[C@H]1NC(=O)C(C)(C)COc1ncccc1C(F)(F)F (single isomer, unassigned) [Example 110, trans-N-(3-ethyl-1-methylpiperidin-4-yl)-2,2-dimethyl-3-((3-(trifluoromethyl)pyridin-2-yl)oxy)propanamide]",1
